“And” between values parts separate entries of the source, which are not always exact repeats. Identical values can stand only once.
Experiments:
PBMCs = assay: Cell viability by trypan blue staining after 24 hours; format: cell-based, human; design: key to Viability (dose-response): % of activated DMSO control viability; conditions: for Viability (dose-response): 1 participant per drug, in % (unit assumed)
Method: (§1) Figure 1 Screening of candidate LPAs by measuring the change in multiply spliced HIV transcripts after activation. Each drug was tested in PBMCs from 2 ART-suppressed study participants (denoted in the legend by varying symbol shapes). PBMCs were aliquoted into wells at 6 × 10^6 cells/well. After activation, the cells were cultured with antiretrovirals in the presence of individual drugs in DMSO or DMSO alone as control. All conditions were tested in the presence of CD3/28 T cell–activating beads, except for the unactivated DMSO condition. (A) After 24 hours, the viability was measured by trypan blue staining and then normalized to the levels of the activated DMSO (% of activated DMSO). Bars indicate medians. (B) Total cellular RNA was extracted, and the levels of multiply spliced HIV transcripts (TatRev) were measured by RT-ddPCR, normalized to 1 μg of total cellular RNA, and expressed as a percentage of the activated DMSO control (% of activated DMSO). RT-dd, reverse transcription digital droplet; vRNA, viral RNA; HAT, histone acetyltransferase.
For quantification of cell-associated HIV transcripts, PBMCs were harvested either after 24 hours or after 6 days. The cell viabilities were measured by trypan blue staining; then the cells were pelleted by centrifuging at 300g for 6 minutes and stored at –80°C. For quantification of virion-associated HIV RNA, cell culture supernatant was collected from 6 × 10^6 PBMCs that were treated and activated for 6 days as described above. Residual cells and cellular debris were subsequently removed from the supernatant by differential centrifugation (300g for 6 minutes, then 20,000g for 10 minutes), and the supernatant was stored at –80°C.

[1] = test system: HIV transcripts (TAR, LLTR, Pol, PolyA, TatRev); assay: Latency reversal assay: cell-associated HIV transcripts (RT-ddPCR) 24 hours after anti-CD3/CD28 activation of PBMCs from ART-suppressed PWH; format: cell-based; design: key to TatRev: % of activated DMSO control, normalized to 1 μg total RNA; Elongated (LLTR) HIV transcripts, median relative to activated DMSO, initial screening / Midtranscribed (Pol) HIV transcripts, median relative to activated DMSO, initial screening / Multiply spliced (TatRev) HIV transcripts, median relative to activated DMSO, initial screening: concentration or dose not given beside the values; conditions: for Effect on HIV transcripts in the initial drug screen (in words): 24 hours after activation; for Pol HIV transcripts (DMSO αCD3/28 = 100) / PolyA HIV transcripts (DMSO αCD3/28 = 100) / TatRev HIV transcripts (DMSO αCD3/28 = 100): αCD3/28-activated, ruxolitinib 4μM, triptolide 25-50nM, alvocidib 40nM, dinaciclib 8nM, AZD4573 8nM, quercetin 5μM, pladienolide B 10nM, isoginkgetin 25μM, herboxidiene 5nM, KRIBB11 2.5μM, tanespimycin 5μM, mithramycin A 25nM; for PolyA/LLTR / TatRev/PolyA / LLTR/TAR: DMSO+CD3/28 = 1, Fig 3B, C and D; for PolyA / TatRev: DMSO+αCD3/28 = 100, Fig 3A
Method: We selected 26 small molecules targeting pathways implicated in HIV transcription or the blocks to HIV transcription underlying latency (Supplemental Table 1). […] Initial screening of all drugs was performed in freshly isolated PBMCs from 2 ART-suppressed individuals (Figure 1 and Supplemental Figure 2). PBMCs were cultured in the presence of individual drugs in DMSO or DMSO alone as a control, subsequently activated (anti-CD3/CD28), and harvested after 24 hours. […] The progression through different blocks to HIV transcription was quantified by measuring the levels of initiated (TAR), 5′ elongated (LLTR), midtranscribed/unspliced (Pol), completed (PolyA), and multiply spliced (TatRev) HIV transcripts. The levels of those HIV transcripts were normalized to 1 μg of total cellular RNA (to normalize for the effect of the drug on global cellular transcription) and expressed as a percentage of the activated DMSO control.
as §1
The ability of our candidate LPAs to inhibit HIV transcriptional progression after activation was examined in PBMCs from a minimum of 7 PWH per drug tested (Figure 3). PBMCs were cultured in the presence of individual drugs in DMSO or in DMSO alone as a control, subsequently activated (anti-CD3/CD28), and harvested after 24 hours.
Each drug was tested in PBMCs from 7 ART-suppressed study participants. The PBMCs were aliquoted into wells at 6 × 10^6 cells/well. After activation, the cells were cultured with antiretrovirals in the presence of individual drugs in DMSO or DMSO alone as control. All conditions were tested in the presence of CD3/28 T cell–activating beads, except for the unactivated DMSO condition. After 24 hours, total RNA was extracted, and the progression through different stages of HIV transcription was quantified by measuring the levels of initiated (TAR), 5′ elongated (LLTR), midtranscribed/unspliced (Pol), completed (PolyA), and multiply spliced (TatRev) HIV transcripts. (A) The levels of all HIV transcripts were normalized to 1 μg of total cellular RNA and expressed as a percentage of the activated DMSO control (% of activated DMSO). Medians are shown as well as the individual values per study participant in different colors. (B–D) The effect of each drug on HIV transcriptional progression after activation was analyzed by the ratio of one HIV transcript to another. Ratios are independent of HIV infection frequency or normalization to cell numbers. Shown are the proportion of (B) all HIV transcripts that were elongated (LLTR/TAR), (C) elongated HIV transcripts that were completed spliced (PolyA/LLTR), and (D) completed transcripts that were multiply spliced (TatRev/PolyA).

[2] = 2.5μM, 24 h after αCD3/28 activation, each column one participant
[3] = initial screening, 2 participants, 24 hours, Supplemental Figure 2

With `CCc1cnn2c(NCc3ccc[n+]([O-])c3)cc(N3CCCC[C@H]3CCO)nc12` [dinaciclib] the “Viability (dose-response)” value (PBMCs; dose 1 nM) was 89.474, the “Viability (dose-response)” value (PBMCs; dose 4 nM) was 89.815 and the “Viability (dose-response)” value (PBMCs; dose 8 nM) was 89.726. For the same compound, the “Viability (Fig 1A)” value (PBMCs; study participant 150a) was 96.36 % of activated DMSO and the “Viability (Fig 1A)” value (PBMCs; study participant 152) was 99.43 % of activated DMSO.

For `N#CC[C@H](C1CCCC1)n1cc(-c2ncnc3[nH]ccc23)cn1` [ruxolitinib], the mrna remaining at 4 µM ([1]; Human immunodeficiency virus 1, PBMC, 24 h, 4μM, 24 h after αCD3/28 activation, each column one participant, read-out: TAR HIV transcripts (DMSO+αCD3/28 = 100)) was 34.5%, the “Viability (dose-response)” value (PBMCs; dose 0.4 µM) was 90.244 and the “Viability (dose-response)” value (PBMCs; dose 1 µM) was 87.333. The “Viability (dose-response)” value (PBMCs; dose 4 µM) was 92.053, the “Viability (dose-response)” value (PBMCs; dose 10 µM) was 89.32 and the “Viability (Fig 1A)” value (PBMCs; study participant 150a) was 95.89 % of activated DMSO. The “Viability (Fig 1A)” value (PBMCs; study participant 152) was 102.01 % of activated DMSO.

For mithramycin A, the “Effect on HIV transcripts in the initial drug screen (in words)” value ([1]; initial screening, 2 participants) was “no effect after 24 hours” and the “Effect on HIV transcripts in the initial drug screen (in words)” value ([1]; initial screening, 2 participants, listed as Mithramycin A) was “lack of an effect at 24 hours”.

With `CN1CC[C@H](c2c(O)cc(O)c3c(=O)cc(-c4ccccc4Cl)oc23)[C@H](O)C1` [alvocidib] the “Viability (dose-response)” value (PBMCs; dose 4 nM) was 81, the “Viability (dose-response)” value (PBMCs; dose 10 nM) was 85 and the “Viability (dose-response)” value (PBMCs; dose 40 nM) was 95.181. For the same compound, the “Viability (dose-response)” value (PBMCs; dose 100 nM) was 77 and the “Viability (Fig 1A)” value (PBMCs; study participant 150a) was 98.54 % of activated DMSO.

In the case of `CNc1ccc([N+](=O)[O-])c(Nc2ccc3[nH]ncc3c2)n1` [KRIBB11], the “LLTR HIV transcripts (DMSO+αCD3/28 = 100)” value [1, 2] is reported as 71.02 and 48.35 and 38.5 and 36.33 and 35.09 and 15.92 and 24.32, the “Pol HIV transcripts (DMSO+αCD3/28 = 100)” value [1, 2] is reported as 19.01 and 13.73 and 14.61 and 76.94 and 12.5 and 1.36 and 0 and the “TAR HIV transcripts (DMSO+αCD3/28 = 100)” value [1, 2] is reported as 122.57 and 166.06 and 91.93 and 75.64. For the same compound, the “TatRev HIV transcripts (DMSO+αCD3/28 = 100)” value [1, 2] was 11.03 and 9.21 and 38.96 and 12.13 and 2.02 and 0 and 8.77, the “HIV transcriptional elongation, ratio LLTR/TAR” value ([1]; 24 hours, compared with activated DMSO, Figure 3B) was “inhibited” and the “HIV transcriptional completion, ratio PolyA/LLTR” value ([1]; 24 hours, compared with activated DMSO, Figure 3C) was “reduced completion”. The “Reduction of multiply spliced or completed HIV transcripts in drug screen (selection as candidate LPA)” value ([1]; initial screening, 2 participants, 24 hours) was “more than 50%”, the “Elongated (LLTR) HIV transcripts, median relative to activated DMSO, initial screening” value [1, 3] was 60% and the “Midtranscribed (Pol) HIV transcripts, median relative to activated DMSO, initial screening” value [1, 3] was 16%. For the same compound, the “Pol HIV transcripts (DMSO αCD3/28 = 100)” value ([1]; participant 2027) was 73.68, the “PolyA HIV transcripts (DMSO αCD3/28 = 100)” value (“PolyA HIV transcripts” for short) ([1]; participant 2027) was 106.67 and the “TatRev HIV transcripts (DMSO αCD3/28 = 100)” value ([1]; participant 2027) was 11.11. The “Pol HIV transcripts (DMSO αCD3/28 = 100)” value ([1]; participant 2147a) was 33.33, the “PolyA HIV transcripts” value ([1]; participant 2147a) was 22.8 and the “TatRev HIV transcripts (DMSO αCD3/28 = 100)” value ([1]; participant 2147a) was 46.99. For the same compound, the “Pol HIV transcripts (DMSO αCD3/28 = 100)” value ([1]; participant 2256) was 169.23, the “PolyA HIV transcripts” value ([1]; participant 2256) was 89.76 and the “TatRev HIV transcripts (DMSO αCD3/28 = 100)” value ([1]; participant 2256) was 84.19. The “PolyA HIV transcripts” value ([1]; participant 2461) was 176.92, the “Pol HIV transcripts (DMSO αCD3/28 = 100)” value ([1]; participant 2747) was 8.97 and the “PolyA HIV transcripts” value ([1]; participant 2747) was 19.67. For the same compound, the “TatRev HIV transcripts (DMSO αCD3/28 = 100)” value ([1]; participant 2747) was 30, the “Multiply spliced HIV transcripts (TatRev) (Fig 1B)” value ([1]; study participant 150a, 24 hours) was 11.03 % of activated DMSO and the PolyA/LLTR ([1]; study participant 150a) was 0.3562. It also gave a TatRev/PolyA ([1]; study participant 150a) of 0.4361, a PolyA ([1]; study participant 150a) of 25.3 and a TatRev ([1]; study participant 150a) of 11.03. The “Multiply spliced HIV transcripts (TatRev) (Fig 1B)” value ([1]; study participant 152, 24 hours) was 9.21 % of activated DMSO, the PolyA/LLTR ([1]; study participant 152) was 0.4136 and the TatRev/PolyA ([1]; study participant 152) was 0.4605. It also gave a PolyA ([1]; study participant 152) of 20, a TatRev ([1]; study participant 152) of 9.21 and a PolyA/LLTR ([1]; study participant 163) of 0.6494. It also gave a TatRev/PolyA ([1]; study participant 163) of 1.558, a PolyA ([1]; study participant 163) of 25 and a TatRev ([1]; study participant 163) of 38.96. For the same compound, the LLTR/TAR ([1]; study participant 1379) was 0.1731, the PolyA/LLTR ([1]; study participant 1379) was 0.3046 and the TatRev/PolyA ([1]; study participant 1379) was 0. It also gave a PolyA ([1]; study participant 1379) of 4.85, a TatRev ([1]; study participant 1379) of 0 and an LLTR/TAR ([1]; study participant 2147b) of 0.3199. The PolyA/LLTR ([1]; study participant 2147b) was 0.5626, the TatRev/PolyA ([1]; study participant 2147b) was 0.4866 and the PolyA ([1]; study participant 2147b) was 34.68. It also gave a TatRev ([1]; study participant 2147b) of 12.13, an LLTR/TAR ([1]; study participant 2256) of 0.2113 and a PolyA/LLTR ([1]; study participant 2256) of 0.2703. The TatRev/PolyA ([1]; study participant 2256) was 0.2127, the PolyA ([1]; study participant 2256) was 9.49 and the TatRev ([1]; study participant 2256) was 2.02. For the same compound, the LLTR/TAR ([1]; study participant 5557) was 0.3215, the PolyA/LLTR ([1]; study participant 5557) was 0.6238 and the TatRev/PolyA ([1]; study participant 5557) was 0.5784. The PolyA ([1]; study participant 5557) was 15.17, the TatRev ([1]; study participant 5557) was 8.77 and the “Viability (Fig 1A)” value (PBMCs; study participant 150a) was 102.97 % of activated DMSO. The “Viability (Fig 1A)” value (PBMCs; study participant 152) was 101.83 % of activated DMSO.

Source: publication PMC11466185, “Mechanisms and efficacy of small molecule latency-promoting agents to inhibit HIV reactivation ex vivo” (JCI Insight, 2024)
